In US20080280879A1, “SUBSTITUTED HETEROCYCLIC DERIVATIVES AND THEIR PHARMACEUTICAL USE AND COMPOSITIONS” (priority 2007, published 2008):
Converted amounts (≈) assume the structure as drawn.

How the values were obtained:
Format in all cases: cell-based, Staphylococcus aureus
Staph aureus 2811 = assay: MIC, microtiter broth dilution (CLSI M7-A7), Assay 1, Table 12 column D, no serum; conditions: for MIC: Staphylococcus aureus, 2811, Staph aureus 2811, Assay 1, no serum; for MIC, column D: Staph aureus 2811, Assay 1, no serum
Procedure: (§1) The assays described herein include a panel of bacterial isolates of Staphylococcus aureus. Assay 1 comprises the strains noted in Columns A through E, and Assay 2 comprises the strains noted in Columns F through H. The assays are performed in microtiter trays according to Methods for Dilution Antimicrobial Susceptibility Tests for Bacteria that Grow Aerobically; Approved Standard-7th edition (M7-A7) and interpreted according to the Performance Standards for Antimicrobial Susceptibility Testing; 16th Informational Supplement (M100-S16) published by Clinical Laboratory Standards Institute (CLSI). The antibacterial activity is presented in the form of a minimum inhibitory concentration (MIC) value in μg/ml format. The MIC value represents the lowest concentration of drug measured which prevented macroscopically visible growth under the conditions and specific doses tested. The compounds were initially dissolved in DMSO as 30 mM stocks and diluted accordingly to adjust to a concentration of 10 mg/ml or the compounds were dissolved in DMSO at a concentration of 10 mg/ml. For assessment of activity in the presence of human serum, S. aureus 1146 and S. aureus 1031 were inoculated into Mueller-Hinton Broth with 50% pooled inactivated human serum. In some cases, compounds were tested more than once in a particular assay. Where noted, the MIC value shown in Table 12 represents the geometric mean of the data from multiple runs.
(§2) It should be understood that the data in columns A-H represents MIC data in μg/ml and the notation “<=” means ‘less than or equal to’.

Staph aureus 1146 [1] = assay: MIC, microtiter broth dilution (CLSI M7-A7), Assay 1, Table 12 column B, no serum; conditions: for MIC: Staphylococcus aureus, 1146, Staph aureus 1146, Assay 1, no serum; for MIC, column B: Staph aureus 1146, Assay 1, no serum
Procedure: as §1, §2

Staph aureus 2812 = assay: MIC, microtiter broth dilution (CLSI M7-A7), Assay 1, Table 12 column E, no serum; conditions: for MIC: Staphylococcus aureus, 2812, Staph aureus 2812, Assay 1, no serum; for MIC, column E: Staph aureus 2812, Assay 1, no serum
Procedure: as §1, §2

Staph aureus 1146 [2] = assay: MIC in Mueller-Hinton Broth with 50% pooled inactivated human serum, Assay 1, Table 12; conditions: for MIC: Staphylococcus aureus, 1146, Staph aureus 1146, Assay 1, 50% human serum, read-out: MIC, column C; for MIC, column C: Staph aureus 1146, Assay 1, 50% human serum
Procedure: as §1, §2

Staph aureus 1095 MRSA = assay: MIC, microtiter broth dilution (CLSI M7-A7), Assay 1, Table 12 column A, no serum; conditions: Assay 1, no serum; for MIC: Staphylococcus aureus, MRSA
Procedure: as §1, §2

Row | SMILES | MIC (Staph aureus 2811) | MIC (Staph aureus 1146 [1]) | MIC (Staph aureus 2812) | MIC (Staph aureus 1146 [2]) | MIC (Staph aureus 1095 MRSA) | MIC, column D (Staph aureus 2811) | MIC, column B (Staph aureus 1146 [1]) | MIC, column E (Staph aureus 2812) | MIC, column C (Staph aureus 1146 [2]) | MIC, column A (Staph aureus 1095 MRSA)
1 | COc1ccc2ncc(Cl)c([C@@H](O)CNC3(C(=O)O)CCCN(C4CC(c5ccccc5)C4)CC3)c2c1 (single isomer, unassigned) [Example 147] | 1 µg/mL (≈ 1.91 µM) | 1 µg/mL (≈ 1.91 µM) | 1 µg/mL (≈ 1.91 µM) | 4 µg/mL (≈ 7.63 µM) | 8 µg/mL (≈ 15.3 µM) | – | – | – | – | –
2 | COc1ccc2ncc(Cl)c([C@@H](O)CNC3(C(=O)O)CCCN(C4CC(c5ccccc5)C4)CC3)c2c1 (single isomer, unassigned) [Example 148] | – | – | – | – | – | 1 µg/mL (≈ 1.91 µM) | 1 µg/mL (≈ 1.91 µM) | 1 µg/mL (≈ 1.91 µM) | 4 µg/mL (≈ 7.63 µM) | 4 µg/mL (≈ 7.63 µM)
3 | COc1ccc2ncc(F)c([C@@H](O)CNC3(C(=O)O)CCCN(C4CC(c5ccccc5)C4)CC3)c2c1 (single isomer, unassigned) [Example 149] | 2 µg/mL (≈ 3.94 µM) | 2 µg/mL (≈ 3.94 µM) | 2 µg/mL (≈ 3.94 µM) | 4 µg/mL (≈ 7.88 µM) | 8 µg/mL (≈ 15.8 µM) | – | – | – | – | –
4 | COc1ccc2ncc(F)c([C@@H](O)CNC3(C(=O)O)CCCN(C4CC(c5ccccc5)C4)CC3)c2c1 (single isomer, unassigned) [Example 150] | – | – | – | – | – | 2 µg/mL (≈ 3.94 µM) | 2 µg/mL (≈ 3.94 µM) | 2 µg/mL (≈ 3.94 µM) | 4 µg/mL (≈ 7.88 µM) | 4 µg/mL (≈ 7.88 µM)
5 | COc1ccc2nccc(C(O)CC[C@@H]3CCN(C4CC(c5ccc(C)cc5)C4)C[C@@H]3C(=O)O)c2c1 (stereo partly drawn) [Example 6, (3R,4R)-4-[3-hydroxy-3-(6-methoxyquinolin-4-yl)propyl]-1-[3-(4-methylphenyl)cyclobutyl]piperidine-3-carboxylic acid] | 2 µg/mL (≈ 4.09 µM) | 1 µg/mL (≈ 2.05 µM) | 1 µg/mL (≈ 2.05 µM) | 16 µg/mL (≈ 32.7 µM) | 2 µg/mL (≈ 4.09 µM) | – | – | – | – | –
6 | COc1ccc2nccc(C(O)CC[C@@H]3CCN(C4CC(c5ccccc5F)C4)C[C@@H]3C(=O)O)c2c1 (stereo partly drawn) [Example 7, (3R,4R)-1-[3-(2-fluorophenyl)cyclobutyl]-4-[3-hydroxy-3-(6-methoxyquinolin-4-yl)propyl] piperidine-3-carboxylic acid] | 0.125 µg/mL (≈ 0.254 µM) | 0.125 µg/mL (≈ 0.254 µM) | 0.125 µg/mL (≈ 0.254 µM) | 1 µg/mL (≈ 2.03 µM) | 0.25 µg/mL (≈ 0.508 µM) | – | – | – | – | –
7 | COc1ccc2nccc(C(O)CC[C@@H]3CCN(C4CC(Oc5ccccc5)C4)C[C@@H]3C(=O)O)c2c1 (stereo partly drawn) [Example 8, (3R,4R)-4-[3-hydroxy-3-(6-methoxyquinolin-4-yl)propyl]-1-(3-phenoxycyclobutyl)piperidine-3-carboxylic acid] | 0.125 µg/mL (≈ 0.255 µM) | 0.25 µg/mL (≈ 0.51 µM) | 0.25 µg/mL (≈ 0.51 µM) | 8 µg/mL (≈ 16.3 µM) | 0.25 µg/mL (≈ 0.51 µM) | – | – | – | – | –
8 | COc1ccc2nccc(C(CC[C@@H]3CCN(C4CC(c5ccccc5)C4)C[C@@H]3C(=O)O)OC)c2c1 (stereo partly drawn) [Example 10, (3R,4R)-4-[3-methoxy-3-(6-methoxyquinolin-4-yl)propyl]-1-(3-phenylcyclobutyl)piperidine-3-carboxylic acid] | – | – | – | – | 1 µg/mL (≈ 2.05 µM) | 0.5 µg/mL (≈ 1.02 µM) | 0.5 µg/mL (≈ 1.02 µM) | 0.5 µg/mL (≈ 1.02 µM) | 16 µg/mL (≈ 32.7 µM) | –
9 | COc1ccc2nccc(C(CC[C@@H]3CCN(C4CC(c5ccccc5)C4)C[C@@H]3C(=O)O)OC)c2c1 (stereo partly drawn) [Example 11, (3R,4R)-4-[3-methoxy-3-(6-methoxyquinolin-4-yl)propyl]-1-(3-phenylcyclobutyl)piperidine-3-carboxylic acid] | – | – | – | – | – | 2 µg/mL (≈ 4.09 µM) | 2 µg/mL (≈ 4.09 µM) | 2 µg/mL (≈ 4.09 µM) | >64 µg/mL | 1 µg/mL (≈ 2.05 µM)
10 | COc1ccc2nccc(C(O)CC[C@@H]3CCN(C4CC(c5ccccc5)C4)CC3(C)C(=O)O)c2c1 (stereo partly drawn) [Example 12, (4R)-4-[3-hydroxy-3-(6-methoxyquinolin-4-yl)propyl]-3-methyl-1-(3-phenylcyclobutyl) piperidine-3-carboxylic acid] | 2 µg/mL (≈ 4.09 µM) | 2 µg/mL (≈ 4.09 µM) | 2 µg/mL (≈ 4.09 µM) | – | 4 µg/mL (≈ 8.19 µM) | – | – | – | 8 µg/mL (≈ 16.4 µM) | –
11 | COc1ccc2nccc(C(O)CC[C@@H]3CCN(C4CC(c5ccccc5)C4)CC3(C)C(=O)O)c2c1 (stereo partly drawn) [Example 13, (4R)-4-[3-hydroxy-3-(6-methoxyquinolin-4-yl)propyl]-3-methyl-1-(3-phenylcyclobutyl) piperidine-3-carboxylic acid] | – | – | – | – | – | 2 µg/mL (≈ 4.09 µM) | 4 µg/mL (≈ 8.19 µM) | 2 µg/mL (≈ 4.09 µM) | 32 µg/mL (≈ 65.5 µM) | 4 µg/mL (≈ 8.19 µM)
12 | COc1ccc2ncc(F)c(C(O)CC[C@@H]3CCN(C4CC(c5c(F)cccc5F)C4)C[C@@H]3C(=O)O)c2c1 (stereo partly drawn) [Example 17, (3R,4R)-1-[3-(2,6-difluorophenyl)cyclobutyl]-4-[3-(3-fluoro-6-methoxyquinolin-4-yl)-3-hydroxypropyl]piperidine-3-carboxylic acid] | ≤ 0.0625 µg/mL | ≤ 0.0625 µg/mL | ≤ 0.0625 µg/mL | 0.5 µg/mL (≈ 0.946 µM) | ≤ 0.0625 µg/mL | – | – | – | – | –
13 | COc1ccc2nccc(C(O)CC[C@@H]3CCN(C4CC(c5ccccn5)C4)C[C@@H]3C(=O)O)c2c1 (stereo partly drawn) [Example 21, (3R,4R)-4-[3-hydroxy-3-(6-methoxyquinolin-4-yl)propyl]-1-(3-pyridin-2-ylcyclobutyl)piperidine-3-carboxylic acid] | 4 µg/mL (≈ 8.41 µM) | 4 µg/mL (≈ 8.41 µM) | 4 µg/mL (≈ 8.41 µM) | 16 µg/mL (≈ 33.6 µM) | 16 µg/mL (≈ 33.6 µM) | – | – | – | – | –
14 | COc1ccc2nccc(C(O)CC[C@@H]3CCN(C4CC(c5cc(C)sn5)C4)C[C@@H]3C(=O)O)c2c1 (stereo partly drawn) [Example 22, (3R,4R)-4-[3-hydroxy-3-(6-methoxyquinolin-4-yl)propyl]-1-[3-(5-methylisothiazol-3-yl)cyclobutyl] piperidine-3-carboxylic acid] | 1 µg/mL (≈ 2.02 µM) | 1 µg/mL (≈ 2.02 µM) | 2 µg/mL (≈ 4.04 µM) | 8 µg/mL (≈ 16.1 µM) | 4 µg/mL (≈ 8.07 µM) | – | – | – | – | –
15 | COc1ccc2ncc(F)c(CCCC3(C(=O)O)CCN(C4CC(c5ccccc5)C4)CC3)c2c1 (stereo not drawn) [Example 23, 4-[3-(3-fluoro-6-methoxyquinolin-4-yl)propyl]-1-(3-phenylcyclobutyl)piperidine-4-carboxylic acid] | ≤ 0.0625 µg/mL | ≤ 0.0625 µg/mL | ≤ 0.0625 µg/mL | > 64 µg/mL | ≤ 0.0625 µg/mL | – | – | – | – | –
16 | COc1ccc2ncc(F)c(C(O)CCC3(C(=O)O)CCN(C4CC(c5ccccc5)C4)CC3)c2c1 (stereo not drawn) [Example 24, 4-[3-(3-fluoro-6-methoxyquinolin-4-yl)-3-hydroxypropyl]-1-(3-phenylcyclobutyl)piperidine-4-carboxylic acid] | 4 µg/mL (≈ 8.12 µM) | 4 µg/mL (≈ 8.12 µM) | 8 µg/mL (≈ 16.2 µM) | > 64 µg/mL | 16 µg/mL (≈ 32.5 µM) | – | – | – | – | –
17 | COc1ccc2nccc(C(O)CC[C@@H]3CCN(C4CC(c5cccc(Cl)c5)C4)C[C@@H]3C(=O)O)c2c1 (stereo partly drawn) [Example 29, (3R,4R)-1-[3-(3-chlorophenyl)cyclobutyl]-4-[3-hydroxy-3-(6-methoxyquinolin-4-yl)propyl] piperidine-3-carboxylic acid] | 0.25 µg/mL (≈ 0.491 µM) | 0.25 µg/mL (≈ 0.491 µM) | 0.25 µg/mL (≈ 0.491 µM) | 4 µg/mL (≈ 7.86 µM) | 0.5 µg/mL (≈ 0.982 µM) | – | – | – | – | –
18 | COc1ccc2nccc(C(O)CC[C@@H]3CCN(C4CC(c5ccc(C(F)(F)F)cc5)C4)C[C@@H]3C(=O)O)c2c1 (stereo partly drawn) [Example 30, (3R,4R)-4-[3-hydroxy-3-(6-methoxyquinolin-4-yl)propyl]-1-{3-[4-(trifluoromethyl)phenyl]cyclobutyl} piperidine-3-carboxylic acid] | 4 µg/mL (≈ 7.37 µM) | 8 µg/mL (≈ 14.7 µM) | 8 µg/mL (≈ 14.7 µM) | > 64 µg/mL | 4 µg/mL (≈ 7.37 µM) | – | – | – | – | –
